# Values quoted from earlier work as cited in patent publication US8426587B2, “Haloallylamine inhibitors of SSAO/VAP-1 and uses therefor” (Pharmaxis Ltd., priority 2007, dated 2013).
# Molecular target: T1, rat SSAO/VAP-1 (Rattus norvegicus, UniProt O08590)
# T1 sequence (O08590 1-763): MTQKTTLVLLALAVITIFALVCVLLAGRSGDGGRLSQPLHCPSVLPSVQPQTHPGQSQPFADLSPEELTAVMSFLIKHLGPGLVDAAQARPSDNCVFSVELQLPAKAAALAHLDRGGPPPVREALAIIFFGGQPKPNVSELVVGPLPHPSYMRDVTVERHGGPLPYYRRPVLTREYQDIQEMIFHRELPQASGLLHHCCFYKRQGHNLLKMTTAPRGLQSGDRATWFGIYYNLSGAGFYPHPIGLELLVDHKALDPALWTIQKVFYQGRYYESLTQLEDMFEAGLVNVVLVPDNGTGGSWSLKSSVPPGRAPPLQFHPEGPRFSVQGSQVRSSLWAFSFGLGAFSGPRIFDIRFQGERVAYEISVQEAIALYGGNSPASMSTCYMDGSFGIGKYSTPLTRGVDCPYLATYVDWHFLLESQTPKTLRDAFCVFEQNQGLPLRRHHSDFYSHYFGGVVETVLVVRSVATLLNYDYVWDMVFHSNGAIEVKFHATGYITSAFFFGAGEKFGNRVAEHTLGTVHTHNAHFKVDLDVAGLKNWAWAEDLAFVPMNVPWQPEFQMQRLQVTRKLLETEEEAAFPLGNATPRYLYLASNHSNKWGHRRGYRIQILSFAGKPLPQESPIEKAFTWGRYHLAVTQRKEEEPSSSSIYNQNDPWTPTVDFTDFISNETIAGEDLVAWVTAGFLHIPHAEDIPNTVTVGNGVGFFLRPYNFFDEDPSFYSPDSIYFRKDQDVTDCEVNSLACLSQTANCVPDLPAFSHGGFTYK
# Conditions: reports in the literature; cited from earlier work
compound,measurement,value
NC/C(=C/Cl)c1ccccc1 [MDL72274],Selectivity for rat SSAO/VAP-1 compared to MAO-A and MAO-B,selectively inhibiting rat SSAO/VAP-1
